Reference: patent publication US20230060174A1, “PHARMACEUTICAL COMPOSITION OF TRICYCLIC PDE3/PDE4 DUAL INHIBITOR COMPOUND” (CHIA TAI TIANQING PHARMACEUTICAL GROUP CO., LTD., priority 2020, published 2023)

What was measured:
CYP3A4 = target: T1, CYP3A4 (Homo sapiens, UniProt P08684); assay: Inhibition of human liver microsomal CYP3A4 (midazolam probe); assay type: in vitro ADME; details: human liver microsomes
T1 construct: co-incubated with human liver microsomes; from tissue; host or cells: human liver microsomes
Procedure: (§1) Experimental Example 6: Inhibitory effect on activity of isoenzymes (CYP1A2, CYP2C9, CYP2C19, CYP2D6 and CYP3A4) of human liver microsomal cytochrome P450 A total of 5 specific probe substrates of 5 isoenzymes of CYP, namely phenacetin (CYP1A2), diclofenac (CYP2C9), (S)-mephenytoin (CYP2C19), dextromethorphan (CYP2D6) and midazolam (CYP3A4) were each co-incubated with human liver microsomes and the compound of formula (I), and then reduced nicotinamide adenine dinucleotide phosphate (NADPH) was added to initiate the reaction. After the reaction was completed, the samples were treated, and the concentrations of 5 metabolites (acetaminophen, 4′-hydroxydiclofenac, 4′-hydroxymephenytoin, dextrorphan and l′-hydroxymidazolam) generated from the specific substrates were quantitatively detected by lC-MS/MS to calculate the correcnondino- half maximal inhibitory concentrationc (IC50)

CYP2C9 = target: T2, CYP2C9 (Homo sapiens, UniProt P11712); assay: Inhibition of human liver microsomal CYP2C9 (diclofenac probe); assay type: in vitro ADME; details: human liver microsomes
T2 construct: co-incubated with human liver microsomes; from tissue; host or cells: human liver microsomes
Procedure: as §1

[1] = test system: cigarette smoke-induced rat acute lung injury model; assay: Pharmacodynamic study in cigarette smoke-induced rat acute lung injury model; assay type: in vivo, Sprague-Dawley rats; details: rats, atomized 0.05 or 0.15 mg/mL for 30 min daily
Procedure: Experimental Example 7: Pharmacodynamic study in cigarette smoke-induced rat acute lung injury model
Male Sprague-Dawley rats (supplied by Shanghai SLAC Laboratory Animal Co., Ltd.), SPF grade, approximately 200 g.
Procedures • 1. Animals were randomly divided into 6 groups according to body weight after arrival and a one-week acclimation; • 2. On days 1-3 of the experiment, the corresponding compound of each group was atomized for 30 min. Then the animals in the model group and the treatment groups were exposed to cigarette smoke for 1 h, and after a 4-h interval, the animals were exposed to cigarette smoke again for 1 h. Cigarette smoke was given twice daily for 3 consecutive days. The control group animals were exposed to room air; • 3. On day 4 of the experiment, the corresponding compound of each group was atomized for 30 min, and then the animals in the model group and the treatment groups were given the atomized 150 μg/mL LPS for 15 min by inhalation. After 3 h (from the time starting atomization), the animals were exposed to cigarette smoke for 1 h, and then the lung function (Penh and F) of the animals was examined; bronchoalveolar lavage fluid (BALF) was collected for cell counting after the animals were euthanized with CO2. • 4. […]

recombinant human PDE3A = target: T3, recombinant human PDE3A (Homo sapiens, UniProt Q14432); assay: In vitro inhibitory activity against PDE 3A enzyme (fluorescence polarization); assay type: biochemical; details: 1 μM cAMP substrate
T3 construct: amino acid 669-end; GST (N); host or cells: Sf9 insect cells (baculovirus)
Procedure: Experimental Example 3: In vitro detection of the inhibitory activity of the compound against PDE 3A enzyme
Objective: to determine the AMP/GMP expression based on fluorescence polarization, i.e., to trace binding of AMP/GMP to antibody so as to indicate enzyme activity.
Buffer solution: 10 mM Tris—HCl (pH 7.5), 5 mM MgCl2, 0.01% Brij 35, 1 mM dithiothreitol (DTT), and 1% DMSO.
Enzyme: recombinant human PDE3A (Gene accession number: NM 000921; amino acid 669-end) was expressed by baculovirus in Sf9 insect cells using an N-terminal GST tag, with the molecular weight being 84 kDa.
Enzyme substrate: 1 μM cAMP Detection: TranscreenerOAMP2/GMP2 antibody and AMP2/GMP2 AlexaFluor633 tracer.
Procedures: • 1. The recombinant human PDE3A enzyme and enzyme substrate (μM cAMP) were each dissolved in newly prepared experimental buffer solution; • 2. […] The measurement range of fluorescence polarization was […]. • Data analysis: the fluorescence polarization signal was converted to nM based on AMP/GMP standard curve and the percentage enzyme activity relative to DMSO control calculated by Excel. […] The measurement range of fluorescence polarization was Ex/Em=620/688. • […]

T2 sequence (P11712 whole entry): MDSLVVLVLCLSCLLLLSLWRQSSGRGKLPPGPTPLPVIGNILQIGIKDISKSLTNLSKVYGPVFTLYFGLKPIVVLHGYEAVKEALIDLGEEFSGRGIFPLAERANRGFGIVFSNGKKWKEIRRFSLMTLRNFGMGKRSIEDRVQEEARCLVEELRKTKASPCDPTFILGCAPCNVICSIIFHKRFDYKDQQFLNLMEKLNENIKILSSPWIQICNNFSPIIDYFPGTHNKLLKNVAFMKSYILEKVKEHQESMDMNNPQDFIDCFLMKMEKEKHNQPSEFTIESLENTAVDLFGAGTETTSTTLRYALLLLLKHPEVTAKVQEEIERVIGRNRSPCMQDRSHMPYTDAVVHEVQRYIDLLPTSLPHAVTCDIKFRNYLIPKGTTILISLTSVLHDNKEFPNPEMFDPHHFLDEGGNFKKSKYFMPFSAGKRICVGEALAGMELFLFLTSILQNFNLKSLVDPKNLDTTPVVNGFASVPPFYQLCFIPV
T3 sequence (Q14432 669-1141 limits assumed): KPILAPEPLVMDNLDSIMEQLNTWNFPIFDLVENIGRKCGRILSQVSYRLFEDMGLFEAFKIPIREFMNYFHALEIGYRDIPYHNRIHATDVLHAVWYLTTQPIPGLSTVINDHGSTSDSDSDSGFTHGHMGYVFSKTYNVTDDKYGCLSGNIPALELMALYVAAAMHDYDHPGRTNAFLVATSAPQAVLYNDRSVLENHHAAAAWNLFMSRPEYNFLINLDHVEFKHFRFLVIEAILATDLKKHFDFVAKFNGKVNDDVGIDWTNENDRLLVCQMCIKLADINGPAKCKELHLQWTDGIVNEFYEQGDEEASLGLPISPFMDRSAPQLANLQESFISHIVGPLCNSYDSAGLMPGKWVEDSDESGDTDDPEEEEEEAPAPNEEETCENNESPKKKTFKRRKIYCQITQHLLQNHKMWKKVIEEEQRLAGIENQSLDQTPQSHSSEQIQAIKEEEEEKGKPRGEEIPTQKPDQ
T1 sequence (P08684 whole entry): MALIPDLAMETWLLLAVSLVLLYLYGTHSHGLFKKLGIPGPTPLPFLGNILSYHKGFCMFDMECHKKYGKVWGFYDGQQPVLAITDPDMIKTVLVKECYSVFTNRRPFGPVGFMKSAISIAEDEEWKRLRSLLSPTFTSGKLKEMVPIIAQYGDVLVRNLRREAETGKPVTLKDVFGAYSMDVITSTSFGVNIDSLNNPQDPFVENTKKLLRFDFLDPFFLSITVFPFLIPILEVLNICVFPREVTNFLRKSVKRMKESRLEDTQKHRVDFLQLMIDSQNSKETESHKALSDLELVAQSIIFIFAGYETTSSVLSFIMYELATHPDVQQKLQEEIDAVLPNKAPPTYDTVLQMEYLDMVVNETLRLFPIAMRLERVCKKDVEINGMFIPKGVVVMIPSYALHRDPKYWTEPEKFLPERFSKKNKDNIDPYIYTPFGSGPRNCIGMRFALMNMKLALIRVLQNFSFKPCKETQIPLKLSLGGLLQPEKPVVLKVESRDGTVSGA

## CCOc1cc2c(cc1OC)-c1c/c(=N\c3c(C)cc(C)cc3C)n(CCNC(=O)c3c(O)nnn3C)c(=O)n1CC2 [Compound of formula (I)]
CYP3A4
  IC50: ≥ 50 µM
CYP2C9
  IC50: 31 µM
[1]; FIG. 5
  Number of white blood cells in the bronchoalveolar lavage fluid: effectively reduce
[1]; FIG. 6
  Airway resistance index Penh (Mch challenge pulmonary function test): effectively reduce
Recombinant human PDE3A
  IC50: 0.03 nM
